Our source for the inhibition values is patent publication US10092002B2, “Herbicidal composition comprising nicosulfuron or its salt and S -metolachlor or its salt” (ISHIHARA SANGYO KAISHA, LTD., priority 2011, dated 2018).

Molecules are shown by their SMILES.

Common to all, as to assay type: in vivo
For test [1], the system named is sunn-hemp (Crotalaria juncea L.). Briefly: Test Example 4: soil treatment, sunn-hemp, visual growth inhibition rate. The following applies: Crotalaria juncea, soil, read-out: Growth inhibition rate (%) of sunn-hemp, Measured value. The source says: In a case where three active ingredients are combined, the activity can be similarly calculated as follows. E2=(α+β+γ)−(αβ+αγ+βγ)/100+(αβγ)/10000 where α: growth inhibition rate when treated with x (g/ha) of herbicide X,
Growth inhibition rate (%)=0 (equivalent to the non-treated area) to 100 (complete kill)
Upland field soil was put into a 1/300,000 ha pot, and seeds of sunn-hemp (Crotalaria juncea L.) were sown.

Test [2] has as its system common cocklebur (Xanthium strumarium L.). Briefly: Test Example 1: foliar treatment of common cocklebur in pots, visual growth inhibition rate. Conditions: Xanthium strumarium, foliar treatment at 4.3 to 4.8-leaf stage, 22nd day after treatment, read-out: Growth inhibition rate (%) of common cocklebur, Measured value. The source says: When the herbicidal activity in a case where two active ingredients are combined, is larger than the simple sum of the respective herbicidal activities of the two active ingredients (the expected activity), it is called a synergistic effect. The activity expected by the combination of two active ingredients can be calculated as follows (Colby S. R., “Weed”, vol. 15, p. 20-22, 1967). E1=α+β-(α×β÷100) In a case where three active ingredients are combined, the activity can be similarly calculated as follows. […] Upland field soil was put into a 1/1,000,000 ha pot, and seeds of common cocklebur (Xanthium strumarium L.) were sown. […] Dual Gold, manufactured by Syngenta Crop Protection AG), SC agent containing terbuthylazine as an active ingredient (tradename: Click, manufactured by BASF), SC agent containing mesotrione as an active ingredient (tradename: Callisto, manufactured by Syngenta Crop Protection AG) and WG agent containing prosulfuron as an active ingredient (tradename: Peak, manufactured by Syngenta Crop Protection AG) were diluted with water in an amount corresponding to 1,000 Uha, and applied for foliar treatment by a small sprayer. On the 22nd day after treatment, the state of growth of the common cocklebur was visually observed to determine the growth inhibition rate in accordance with the following evaluation standard. The growth inhibition rate (%) (measured value) and the growth inhibition rate (%) (calculated value) calculated by the Colby's formula are shown in Table 1.

Test [3] relates to wild oat (Avena fatua L.). In words: Test Example 3: soil treatment, wild oat, visual growth inhibition rate. The following applies: Avena fatua, soil treatment the day after sowing, 14th day after treatment, read-out: Growth inhibition rate (%) of wild oat, Measured value. The source says: When the herbicidal activity in a case where two active ingredients are combined, is larger than the simple sum of the respective herbicidal activities of the two active ingredients (the expected activity), it is called a synergistic effect. The activity expected by the combination of two active ingredients can be calculated as follows (Colby S. R., “Weed”, vol. 15, p. 20-22, 1967). […] In a case where three active ingredients are combined, the activity can be similarly calculated as follows. […] On the 22nd day after treatment, the state of growth of the common cocklebur was visually observed to determine the growth inhibition rate in accordance with the following evaluation standard. The growth inhibition rate (%) (measured value) and the growth inhibition rate (%) (calculated value) calculated by the Colby's formula are shown in Table 1. […] On the 14th day after treatment, the state of growth of the wild oat was visually observed to determine the growth inhibition rate.

Usually inhibition stands for the change of the read-out against control, counted positive when it falls. `COCCOCc1nc(C(F)(F)F)ccc1C(=O)C1=C(O)C2CCC(C2)C1=O` (centres unmarked) [Bicyclopyrone, 4-hydroxy-3-{2-[(2-methoxyethoxy)methyl]-6-(trifluoromethyl)-3-pyridylcarbonyl}bicyclo[3.2.1]oct-3-en-2-one]: in test [1], the inhibition at 25 g/ha stood at 0% and the inhibition at 150 g/ha came out at 20%.
In the case of `CS(=O)(=O)c1ccc(C(=O)C2C(=O)CCCC2=O)c([N+](=O)[O-])c1` [Mesotrione, 2-(4-mesyl-2-nitrobenzoyl)cyclohexane-1,3-dione], the inhibition at 50 g/ha in test [2] (dose 50 g/ha) turned out to be 0%. The inhibition at 25 g/ha in test [3] (dose 25 g/ha) amounted to 0%. Besides, the inhibition at 150 g/ha in test [3] (dose 150 g/ha) amounted to 5%.
As for `COc1nc(C)nc(NC(=O)NS(=O)(=O)c2ccccc2CCC(F)(F)F)n1` [Prosulfuron, 1-(4-methoxy-6-methyl-1,3,5-triazin-2-yl)-3-[2-(3,3,3-trifluoropropyl)phenylsulfonyl]urea], in test [2] (dose 15 g/ha), the inhibition at 15 g/ha worked out at 88%. Moreover, the inhibition at 2.5 g/ha in test [3] (dose 2.5 g/ha) was 25%. In test [3] (dose 50 g/ha), the inhibition at 50 g/ha turned out to be 0%.
Turning to `CCNc1nc(Cl)nc(NC(C)(C)C)n1` [Terbuthylazine, N^2-tert-butyl-6-chloro-N^4-ethyl-1,3,5-triazine-2,4-diamine], in test [2] (dose 500 g/ha), the inhibition at 500 g/ha was found to be 10%. Besides, the inhibition at 250 g/ha in test [3] (dose 250 g/ha) turned out to be 25%. In test [3] (dose 1500 g/ha), the inhibition at 1500 g/ha was 5%.
